Source: BindingDB's records for doi:10.1021/jm950932r (National Institute of Diabetes and Digestive and Kidney …, 1996)

Experiment: Compound was evaluated for inhibition of hormone stimulated Adenylate cyclase activity in N18TG2 membranes.

Question: For `O=C(c1cccc2ccccc12)c1cn(CCN2CCOCC2)c2ccccc12`, which EC50 is on record?
Answer: The EC50 was 275 nM.

Question: For `Cc1c(C(=O)c2cccc3ccccc23)c2ccccc2n1CCN1CCOCC1`, which EC50 is on record?
Answer: Its EC50 is 370 nM.

Question: For `Cc1c(C(=O)c2ccc(N=C=S)c3ccccc23)c2ccccc2n1CCN1CCOCC1` [(4-Isothiocyanato-naphthalen-1-yl)-[2-methyl-1-(2-morpholin-4-yl-ethyl)-1H-indol-3-yl]-methanone], which EC50 is on record?
Answer: The EC50 was 3000 nM.

Question: Which EC50 does the source give for `O=C(c1cccc2ccccc12)c1cn(CCN2CCOCC2)c2cc(N=C=S)ccc12` [[6-Isothiocyanato-1-(2-morpholin-4-yl-ethyl)-1H-indol-3-yl]-naphthalen-1-yl-methanone] here?
Answer: Its EC50 is 1100 nM.
